{
  "source": "patent US20240398784A1",
  "about": "“C-LINKED ISOQUINOLINE AMIDES AS LRRK2 INHIBITORS, PHARMACEUTICAL COMPOSITIONS, AND USES THEREOF” (Merck Sharp & Dohme LLC, priority 2021, published 2024)",
  "data": [
    {"biological_target": "LRRK2 G2019S (Homo sapiens, UniProt Q5S007, G2019S)", "sequence (Q5S007 whole entry G2019S)": "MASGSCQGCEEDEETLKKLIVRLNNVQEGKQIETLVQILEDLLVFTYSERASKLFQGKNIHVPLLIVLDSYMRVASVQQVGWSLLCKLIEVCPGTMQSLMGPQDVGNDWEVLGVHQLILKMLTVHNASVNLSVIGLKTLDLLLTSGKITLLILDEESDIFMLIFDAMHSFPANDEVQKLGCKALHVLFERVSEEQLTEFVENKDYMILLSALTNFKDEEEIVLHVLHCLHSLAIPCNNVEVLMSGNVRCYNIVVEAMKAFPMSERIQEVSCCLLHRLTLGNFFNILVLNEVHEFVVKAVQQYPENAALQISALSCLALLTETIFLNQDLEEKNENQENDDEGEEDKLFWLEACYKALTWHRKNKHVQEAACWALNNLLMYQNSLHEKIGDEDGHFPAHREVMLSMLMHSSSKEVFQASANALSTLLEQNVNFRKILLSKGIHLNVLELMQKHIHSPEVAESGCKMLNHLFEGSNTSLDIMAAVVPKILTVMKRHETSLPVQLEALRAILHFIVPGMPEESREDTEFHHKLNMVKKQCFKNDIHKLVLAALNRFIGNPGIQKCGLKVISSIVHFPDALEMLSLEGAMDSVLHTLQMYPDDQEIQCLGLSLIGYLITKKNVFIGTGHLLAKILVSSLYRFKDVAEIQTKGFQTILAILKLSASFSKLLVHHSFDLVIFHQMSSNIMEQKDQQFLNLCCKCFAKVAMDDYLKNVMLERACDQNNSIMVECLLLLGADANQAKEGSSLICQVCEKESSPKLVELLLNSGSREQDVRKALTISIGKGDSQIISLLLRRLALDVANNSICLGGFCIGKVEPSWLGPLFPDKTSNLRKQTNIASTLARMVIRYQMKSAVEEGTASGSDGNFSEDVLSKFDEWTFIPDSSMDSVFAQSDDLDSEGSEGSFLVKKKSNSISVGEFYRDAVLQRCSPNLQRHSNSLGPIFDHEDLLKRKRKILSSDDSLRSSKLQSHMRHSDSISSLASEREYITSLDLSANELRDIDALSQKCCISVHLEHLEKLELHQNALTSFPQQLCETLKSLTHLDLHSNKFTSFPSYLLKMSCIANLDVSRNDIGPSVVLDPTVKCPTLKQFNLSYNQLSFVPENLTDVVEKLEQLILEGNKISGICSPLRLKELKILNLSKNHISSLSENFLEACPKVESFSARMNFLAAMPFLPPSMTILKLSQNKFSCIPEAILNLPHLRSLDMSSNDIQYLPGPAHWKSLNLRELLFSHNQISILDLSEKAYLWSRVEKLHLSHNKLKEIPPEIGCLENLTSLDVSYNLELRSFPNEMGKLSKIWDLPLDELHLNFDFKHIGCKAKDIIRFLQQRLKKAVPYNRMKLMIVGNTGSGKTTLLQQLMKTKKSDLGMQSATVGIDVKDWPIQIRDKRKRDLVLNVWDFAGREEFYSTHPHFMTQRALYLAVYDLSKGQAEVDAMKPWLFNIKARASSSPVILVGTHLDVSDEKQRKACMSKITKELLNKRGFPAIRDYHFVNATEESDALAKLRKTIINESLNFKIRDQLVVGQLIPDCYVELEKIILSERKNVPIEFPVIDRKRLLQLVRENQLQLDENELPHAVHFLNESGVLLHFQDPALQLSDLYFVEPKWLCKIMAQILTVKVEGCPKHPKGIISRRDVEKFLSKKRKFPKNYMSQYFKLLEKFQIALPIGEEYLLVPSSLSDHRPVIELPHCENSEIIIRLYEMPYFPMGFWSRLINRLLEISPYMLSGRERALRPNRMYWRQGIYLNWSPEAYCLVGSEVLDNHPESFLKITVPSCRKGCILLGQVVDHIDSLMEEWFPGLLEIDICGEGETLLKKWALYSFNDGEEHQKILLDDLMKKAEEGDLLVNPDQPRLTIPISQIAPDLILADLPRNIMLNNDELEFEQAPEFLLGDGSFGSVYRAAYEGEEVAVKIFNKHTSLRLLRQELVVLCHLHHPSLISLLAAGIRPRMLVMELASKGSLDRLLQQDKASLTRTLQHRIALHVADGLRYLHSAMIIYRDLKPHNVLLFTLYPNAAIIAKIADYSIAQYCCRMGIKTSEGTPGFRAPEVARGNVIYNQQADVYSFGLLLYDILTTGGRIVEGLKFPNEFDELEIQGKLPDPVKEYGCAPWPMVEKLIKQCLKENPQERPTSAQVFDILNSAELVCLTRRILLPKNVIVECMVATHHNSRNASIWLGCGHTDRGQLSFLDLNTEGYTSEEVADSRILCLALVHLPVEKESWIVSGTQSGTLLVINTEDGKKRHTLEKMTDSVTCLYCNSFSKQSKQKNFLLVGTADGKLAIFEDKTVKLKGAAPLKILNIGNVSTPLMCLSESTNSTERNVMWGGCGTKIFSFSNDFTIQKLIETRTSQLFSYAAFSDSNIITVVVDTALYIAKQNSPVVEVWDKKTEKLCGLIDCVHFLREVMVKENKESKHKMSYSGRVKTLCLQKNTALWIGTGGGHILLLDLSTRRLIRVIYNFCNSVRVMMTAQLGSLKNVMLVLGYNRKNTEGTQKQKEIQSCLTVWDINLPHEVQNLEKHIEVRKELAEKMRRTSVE", "assay": "LRRK2 G2019S Km ATP LanthaScreen assay", "assay_type": "biochemical", "settings": "read-out: LRRK2 pIC50 (converted)", "units": {"IC50": "nM"}, "values": [
      {"compound": "CC1CC1(C#N)c1ccc2cnc(NC(=O)C3CC3)cc2c1", "note": "(single isomer, unassigned) [Ex-18.7, (R or S)-N-(6-(1-cyano-2-methylcyclopropyl)isoquinolin-3-yl)cyclopropanecarboxamide]", "IC50": 4.57},
      {"compound": "Cc1cc2cnc(NC(=O)C3CC34CCOCC4)cc2cc1C1CCN(C2(C)COCC2C)CC1", "note": "(single isomer, unassigned) [Ex-15.4, N-(6-(1-(3,4-dimethyltetrahydrofuran-3-yl)piperidin-4-yl)-7-methylisoquinolin-3-yl)-6-oxaspiro[2.5]octane-1-carboxamide]", "IC50": 0.0813},
      {"compound": "CC1(N2CCC(c3cc4cc(NC(=O)C5CC5C#N)ncc4cc3Cl)CC2)COC1", "note": "(centres unmarked) [Ex-2.8]", "IC50": 8.32},
      {"compound": "O=C(Nc1cc2cc(C3CCC(N4CC(F)(F)C4)CC3)c(Cl)cc2cn1)C1CC1c1ccccn1", "note": "(single isomer, unassigned) [Ex-5.6, N-(7-chloro-6-(4-(3,3-difluoroazetidin-1-yl)cyclohexyl)isoquinolin-3-yl)-2-(pyridin-2-yl)cyclopropane-1-carboxamide]", "IC50": 912},
      {"compound": "O=C(Nc1cc2cc(C3CCN(C4COCC4O)CC3)c(Cl)cc2cn1)C1CC1", "note": "(single isomer, unassigned) [Ex-12.5, N-(7-chloro-6-(1-(4-hydroxytetrahydrofuran-3-yl)piperidin-4-yl)isoquinolin-3-yl)cyclopropanecarboxamide]", "IC50": 2.88},
      {"compound": "O=C(Nc1cc2cc(C3CCN(C4COC4)CC3)c(Cl)cc2cn1)C1CC12CCC(F)(F)CC2", "note": "(single isomer, unassigned) [Ex-1.8, (R or S)-N-(7-chloro-6-(1-(oxetan-3-yl)piperidin-4-yl)isoquinolin-3-yl)-6,6-difluorospiro[2.5]octane-1-carboxamide]", "IC50": 21.4},
      {"compound": "CC1(N2CCC(c3cc4cc(NC(=O)C5CCC(C(F)(F)F)OC5)ncc4cc3Cl)CC2)COCC1O", "note": "(centres unmarked) [Ex-2.60]", "IC50": 47.9},
      {"compound": "CCC(=O)N1CCC(C(C)C(=O)Nc2cc3cc(C4(C#N)CC45CC5)ccc3cn2)CC1", "note": "(centres unmarked) [Ex-2.112]", "IC50": 135}
    ]}
  ]
}
